Assay results published in patent publication US20250034216A1, “STEREOSELECTIVE COVALENT LIGANDS FOR ONCOGENIC AND IMMUNOLOGICAL PROTEINS” (The Scripps Research Institute, priority 2021, published 2025).

Tests used:
Assay in all cases: IA-DTB cysteine engagement
Type in all cases: binding
Conditions in all cases: 22Rv1 cells, 20 μM probe, 1 h, relative to DMSO
COX6B1_C54 = molecular target: T1, COX6B1_C54 (Homo sapiens, UniProt P14854)
T1 construct: endogenous in cells; host or cells: 22Rv1
Method in brief: (§1)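 Cells were treated in situ with electrophilic probes, then lysed, and the lysates (2 mg/mL protein) were labeled with IA-DTB for 1 h at ambient temperature. After reduction, alkylation and trypsin digestion, labeled peptides were streptavidin-enriched, TMT-labeled and fractionated. Engagement ratios are probe vs DMSO reporter intensities, averaged across replicates.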

MMS19_C819 = molecular target: T2, MMS19_C819 (Homo sapiens, UniProt Q96T76)
T2 construct: endogenous in cells; host or cells: 22Rv1
T2 sequence (Q96T76 1-1030): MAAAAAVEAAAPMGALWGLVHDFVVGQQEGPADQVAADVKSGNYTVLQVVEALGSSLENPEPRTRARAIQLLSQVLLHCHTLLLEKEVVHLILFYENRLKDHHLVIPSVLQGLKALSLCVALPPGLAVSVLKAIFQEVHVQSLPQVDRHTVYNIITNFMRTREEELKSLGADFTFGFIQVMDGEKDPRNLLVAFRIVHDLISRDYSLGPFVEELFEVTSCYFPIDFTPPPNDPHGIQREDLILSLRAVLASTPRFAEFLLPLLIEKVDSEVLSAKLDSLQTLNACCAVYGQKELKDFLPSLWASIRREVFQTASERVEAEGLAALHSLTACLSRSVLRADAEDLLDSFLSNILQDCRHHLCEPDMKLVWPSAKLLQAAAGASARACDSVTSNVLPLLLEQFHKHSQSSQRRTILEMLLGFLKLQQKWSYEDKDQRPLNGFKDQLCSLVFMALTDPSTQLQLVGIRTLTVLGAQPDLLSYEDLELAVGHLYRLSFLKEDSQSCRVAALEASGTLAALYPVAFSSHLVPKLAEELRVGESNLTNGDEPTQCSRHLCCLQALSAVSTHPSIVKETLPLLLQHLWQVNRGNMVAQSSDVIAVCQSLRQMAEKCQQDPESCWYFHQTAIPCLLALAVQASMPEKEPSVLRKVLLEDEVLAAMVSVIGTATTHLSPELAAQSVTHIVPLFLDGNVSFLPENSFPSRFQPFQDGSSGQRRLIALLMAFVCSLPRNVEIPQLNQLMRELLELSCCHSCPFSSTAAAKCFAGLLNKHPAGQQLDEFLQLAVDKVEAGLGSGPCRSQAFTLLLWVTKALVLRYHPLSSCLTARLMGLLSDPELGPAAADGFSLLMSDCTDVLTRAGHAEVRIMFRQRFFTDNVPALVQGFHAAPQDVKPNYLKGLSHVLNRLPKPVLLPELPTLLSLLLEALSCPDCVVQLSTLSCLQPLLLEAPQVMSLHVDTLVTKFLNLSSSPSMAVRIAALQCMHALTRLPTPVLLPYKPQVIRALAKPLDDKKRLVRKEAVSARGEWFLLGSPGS
Method in brief: as §1

NAPIL1_C132 = molecular target: T3, NAPIL1_C132 (Homo sapiens, UniProt P55209)
T3 construct: endogenous in cells; host or cells: 22Rv1
T3 sequence (P55209 1-391): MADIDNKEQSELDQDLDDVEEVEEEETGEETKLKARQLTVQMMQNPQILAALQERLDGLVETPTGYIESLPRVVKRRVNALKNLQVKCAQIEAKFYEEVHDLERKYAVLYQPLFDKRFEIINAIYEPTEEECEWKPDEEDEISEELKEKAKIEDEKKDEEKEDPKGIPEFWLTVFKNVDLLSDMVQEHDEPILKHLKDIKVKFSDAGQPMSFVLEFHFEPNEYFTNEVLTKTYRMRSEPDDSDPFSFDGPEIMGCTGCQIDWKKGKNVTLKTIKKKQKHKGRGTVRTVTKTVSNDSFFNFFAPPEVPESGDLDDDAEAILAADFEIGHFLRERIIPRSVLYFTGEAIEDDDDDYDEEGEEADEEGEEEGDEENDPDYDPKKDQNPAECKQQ
Method in brief: as §1

PDE3B_C311 = molecular target: T4, PDE3B_C311 (Homo sapiens, UniProt Q13370)
T4 construct: endogenous in cells; host or cells: 22Rv1
T4 sequence (Q13370 whole entry): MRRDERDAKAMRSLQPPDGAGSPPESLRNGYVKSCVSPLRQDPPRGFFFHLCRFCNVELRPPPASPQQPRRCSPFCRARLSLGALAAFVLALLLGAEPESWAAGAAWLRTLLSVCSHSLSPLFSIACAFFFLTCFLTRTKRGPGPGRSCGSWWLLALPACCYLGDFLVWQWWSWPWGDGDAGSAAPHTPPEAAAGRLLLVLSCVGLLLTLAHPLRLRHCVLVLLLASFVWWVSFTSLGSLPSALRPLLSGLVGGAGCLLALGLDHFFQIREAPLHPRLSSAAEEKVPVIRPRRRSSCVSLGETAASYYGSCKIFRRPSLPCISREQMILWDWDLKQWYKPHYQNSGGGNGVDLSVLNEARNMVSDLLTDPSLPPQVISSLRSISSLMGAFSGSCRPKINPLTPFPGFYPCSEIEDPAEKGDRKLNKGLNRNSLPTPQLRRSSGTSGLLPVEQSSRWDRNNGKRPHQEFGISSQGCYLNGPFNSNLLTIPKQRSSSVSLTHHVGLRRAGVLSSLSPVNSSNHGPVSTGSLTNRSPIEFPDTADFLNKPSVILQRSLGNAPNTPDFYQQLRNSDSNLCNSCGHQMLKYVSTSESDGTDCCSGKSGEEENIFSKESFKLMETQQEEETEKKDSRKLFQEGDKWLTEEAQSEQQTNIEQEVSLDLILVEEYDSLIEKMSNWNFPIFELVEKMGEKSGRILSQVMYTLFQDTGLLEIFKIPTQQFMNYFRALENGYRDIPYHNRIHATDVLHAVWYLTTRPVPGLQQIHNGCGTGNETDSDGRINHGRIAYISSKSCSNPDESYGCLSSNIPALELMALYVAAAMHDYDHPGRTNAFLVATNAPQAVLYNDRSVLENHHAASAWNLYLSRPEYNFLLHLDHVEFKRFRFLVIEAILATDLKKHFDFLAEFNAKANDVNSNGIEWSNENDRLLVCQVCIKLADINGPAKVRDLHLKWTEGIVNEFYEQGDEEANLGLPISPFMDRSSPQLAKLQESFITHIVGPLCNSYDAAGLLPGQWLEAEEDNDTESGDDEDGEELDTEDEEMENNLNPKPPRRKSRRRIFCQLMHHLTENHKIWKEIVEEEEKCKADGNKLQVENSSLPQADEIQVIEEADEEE
Method in brief: as §1

T1 sequence (P14854 whole entry): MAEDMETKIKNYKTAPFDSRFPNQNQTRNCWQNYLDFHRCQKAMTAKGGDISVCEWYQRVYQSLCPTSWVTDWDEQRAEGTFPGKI

C=CC(=O)N1C[C@@H](c2ccc(Br)cc2)[C@H]1C(=O)Nc1cccc2cccnc12 [MY-1A, (2S,3R)-1-acryloyl-3-(4-bromophenyl)-N-(quinolin-8-yl)azetidine-2-carboxamide] was tested, and the “% engagement COX6B1_C54” value (COX6B1_C54) was 66.5%, the “% engagement MMS19_C819” value (MMS19_C819) was 1.5% and the “% engagement NAPIL1_C132” value (NAPIL1_C132) was −21.5%. For the same compound, the “% engagement PDE3B_C311” value (PDE3B_C311) was 57.5%.

In the case of C=CC(=O)N1C[C@H](c2ccc(Br)cc2)[C@@H]1C(=O)Nc1cccc2cccnc12 [MY-1B, (2R,3S)-1-acryloyl-3-(4-bromophenyl)-N-(quinolin-8-yl)azetidine-2-carboxamide], the “% engagement COX6B1_C54” value (COX6B1_C54) is reported as 56%, the “% engagement MMS19_C819” value (MMS19_C819) is reported as 90% and the “% engagement NAPIL1_C132” value (NAPIL1_C132) is reported as 6%. For the same compound, the “% engagement PDE3B_C311” value (PDE3B_C311) was 58%.

C=CC(=O)N1C[C@H](c2ccc(Br)cc2)[C@H]1C(=O)Nc1cccc2cccnc12 [MY-3A, (2S,3S)-1-acryloyl-3-(4-bromophenyl)-N-(quinolin-8-yl)azetidine-2-carboxamide] was tested, and the “% engagement COX6B1_C54” value (COX6B1_C54) was 33.5%, the “% engagement MMS19_C819” value (MMS19_C819) was −10% and the “% engagement NAPIL1_C132” value (NAPIL1_C132) was 25%. The “% engagement PDE3B_C311” value (PDE3B_C311) was 49%.

For C=CC(=O)N1C[C@H](c2ccc(Br)cc2)[C@H]1C(=O)Nc1cccc2cccnc12 [MY-3B, (2S,3S)-1-acryloyl-3-(4-bromophenyl)-N-(quinolin-8-yl)azetidine-2-carboxamide], the “% engagement COX6B1_C54” value (COX6B1_C54) was 36.5%, the “% engagement MMS19_C819” value (MMS19_C819) was 11% and the “% engagement NAPIL1_C132” value (NAPIL1_C132) was 80%. For the same compound, the “% engagement PDE3B_C311” value (PDE3B_C311) was 75.5%.
